In paper PMC12164754, “Phosphoglycerate dehydrogenase is required for kernel development and defines a predominant serine synthesis pathway in maize” (The Plant Cell, 2025):

Experiments:
[1] = biological target: DEK20^WT (truncated DEK20, residues 1-387, substrate binding domain and nucleotide-binding domain) (maize (Zea mays)); experiment: crystal structure; apo form, 3.5 Å; about 16 mg/ml DEK20^WT crystallised in sodium nitrate, sodium phosphate dibasic, ammonium sulfate, HEPES/MOPS pH 7.5, glycerol, PEG 4000; solved by molecular replacement
[2] = biological target: T1, DEK20 (phosphoglycerate dehydrogenase1, PGDH1) (Zea mays, UniProt A0A1D6DW07, S282L); experiment: microscale thermophoresis (MST); type: binding
T1 construct: gene LOC103645840; recombinant His-DEK20
T1 sequence (A0A1D6DW07 entry or part of it S282L): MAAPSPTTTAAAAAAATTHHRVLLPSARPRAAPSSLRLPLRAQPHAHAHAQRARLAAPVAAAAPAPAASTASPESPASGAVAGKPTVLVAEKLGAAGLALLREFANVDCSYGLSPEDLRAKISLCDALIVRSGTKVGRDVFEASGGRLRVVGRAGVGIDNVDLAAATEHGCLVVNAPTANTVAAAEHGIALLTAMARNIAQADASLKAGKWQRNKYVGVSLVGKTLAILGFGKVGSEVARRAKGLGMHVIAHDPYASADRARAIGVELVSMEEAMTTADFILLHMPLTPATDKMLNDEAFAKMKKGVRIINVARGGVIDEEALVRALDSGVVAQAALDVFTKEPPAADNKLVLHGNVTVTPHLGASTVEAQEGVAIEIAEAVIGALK

[3] = biological target: T2, DEK20 (phosphoglycerate dehydrogenase1, PGDH1) (Zea mays, UniProt A0A1D6DW07); experiment: microscale thermophoresis (MST); type: binding
T2 construct: gene LOC103645840; recombinant His-DEK20
T2 sequence (A0A1D6DW07 1-387): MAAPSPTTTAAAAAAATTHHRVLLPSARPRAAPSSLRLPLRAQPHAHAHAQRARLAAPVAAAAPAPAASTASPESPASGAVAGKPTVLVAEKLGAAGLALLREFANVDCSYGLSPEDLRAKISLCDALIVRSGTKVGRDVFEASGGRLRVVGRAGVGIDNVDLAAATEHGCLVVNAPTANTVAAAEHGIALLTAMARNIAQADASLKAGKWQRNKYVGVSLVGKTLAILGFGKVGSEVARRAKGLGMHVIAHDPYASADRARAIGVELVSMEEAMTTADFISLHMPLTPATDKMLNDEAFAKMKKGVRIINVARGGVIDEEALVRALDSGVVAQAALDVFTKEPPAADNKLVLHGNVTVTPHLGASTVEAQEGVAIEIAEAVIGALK

stoichiometry N [1] | Compound | Kd [2] | Kd [3]
2 | DEK20^WT (truncated DEK20, residues 1-387, substrate binding domain and nucleotide-binding domain) (domain or fragment) | – | –
– | NC(=O)c1ccc[n+]([C@@H]2O[C@H](COP(=O)([O-])OP(=O)(O)OC[C@H]3O[C@@H](n4cnc5c(N)ncnc54)[C@H](O)[C@@H]3O)[C@@H](O)[C@H]2O)c1 [NAD^+] | 8.11 µM | 32.4 µM
